Measured values reported in US20070032477A1, “Pteridine derivatives useful for making pharmaceutical compositions” (priority 2003, published 2007).

Legend:
[1] = system: production of IL-1 β by PBMC in response to stimulation by LPS; test: IL-1 β assay; assay type: cell-based, human; details: LPS 1 μg/ml, 72 hours, sandwich ELISA
Experimental: Peripheral blood mononuclear cells (herein referred as PBMC), in response to stimulation by lipopolysaccharide (LPS), a gram-negative bacterial endotoxin, produce various […], in particular human IL-1 β. Inhibition of the activation of PBMC can therefore be measured by the level of suppression of the production of IL-1 β by PBMC in response to stimulation by LPS.
Such inhibition measurement was performed as follows: PBMC were isolated from heparinized peripheral blood by density gradient centrifugation over Lymphoprep (commercially available from Nycomed, Norway). LPS was then added to the PMBC suspension in complete medium (10^6 cells/ml) at a final concentration of 1 μg/ml. The pteridine derivative to be tested was added at different concentrations (0.1 μM, 1 μM and 10 μM) and the cells were incubated at 37° C. for 72 hours in 5% CO2. The supernatants were collected, then IL-1 β concentrations were measured with an anti-IL-1 β antibody in a sandwich ELISA. The calorimetric reading of the ELISA was measured by a Multiskan RC plate reader (commercially available from ThermoLabsystems, Finland) at 450 nm (reference wavelength: 690 nm). Data analysis was performed with Ascent software 2.6. (also from ThermoLabsystems, Finland): a standard curve (recombinant human IL-1 β) was drawn and the amount (pg/ml) of each sample on the standard curve was determined.
The % suppression of human IL-1 β by the pteridine derivatives (drugs) of this invention was calculated using the formula: [formula]

[2] = system: mixed lymphocyte reaction (PBMC with allogeneic PBMC or Eppstein-Barr Virus-transformed human B cells as stimulator cells); test: Mixed lymphocyte reaction (MLR) assay; assay type: cell-based; details: lowest concentration giving 50% suppression of the MLR; [3H]-thymidine
[3] = system: production of TNF-α by PBMC in response to stimulation by LPS; test: TNF-α assay; assay type: cell-based, human; details: LPS 1 μg/ml, 72 hours, sandwich ELISA
Method in brief: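 Cells were LPS-stimulated (1 μg/ml final) peripheral blood mononuclear cells at 10^6/ml, exposed 72 h at 37 °C to 0.1, 1 or 10 μM test compound.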

Compound	IC50 [1]	IC50 [2]	IC50 [3]
2-amino-4-(1-butylpiperazino)-6-(3,4-dimethoxyphenyl)pteridine [Example 125]	7500 nM	800 nM	
2-amino-4-(1-cyclopentylpiperazino)-6-(3,4-dimethoxyphenyl)pteridine [Example 124]	5000 nM		400 nM
2-amino-4-(1-isopropylpiperazino)-6-(3,4-dimethoxyphenyl)pteridine [Example 126]	3700 nM	4900 nM	
2-amino-4-(3-(piperazin-1-yl)-propionic acid ethyl ester)-6-(3,4-dimethoxyphenyl)pteridine [Example 134]	1200 nM		70 nM
2-amino-4-((1-phenylethyl)-piperazin-1-yl)-6-(3,4-dimethoxyphenyl)pteridine [Example 152]	3600 nM	1200 nM	300 nM
2-amino-4-((2-pyridyl)-piperazin-1-yl)-6-(3,4-dimethoxyphenyl)pteridine [Example 146]	5000 nM	200 nM	200 nM
2-amino-4-((3-dichlorophenyl)-piperazin-1-yl)-6-(3,4-dimethoxyphenyl)pteridine [Example 151]	3700 nM		100 nM
2-amino-4-((3-methoxyphenyl)-piperazin-1-yl)-6-(3,4-dimethoxyphenyl)pteridine [Example 148]	7200 nM	300 nM	300 nM
COc1ccc(-c2cnc3nc(N)nc(N4CCN(C(=O)c5ccc(Cl)cc5)CC4)c3n2)cc1OC [Example 12]	5000 nM	300 nM	200 nM
COc1ccc(-c2cnc3nc(N)nc(N4CCN(C(=O)CCc5ccccc5)CC4)c3n2)cc1OC [Example 15, 2-amino-4-[(N-hydrocinnamoyl)-piperazin-1-yl]-6-(3,4-dimethoxyphenyl)pteridine]	7000 nM	100 nM	10 nM
COc1ccc(-c2cnc3nc(N)nc(N4CCN(C(=O)N(C(C)C)C(C)C)CC4)c3n2)cc1OC [Example 20, 2-amino-4-[(N-diisopropylcarbamoyl)-piperazin-1-yl]-6-(3,4-dimethoxy-phenyl)pteridine]	8500 nM	500 nM	30 nM
CCCCCOc1ccc(C(=O)N2CCN(c3nc(N)nc4ncc(-c5ccc(OC)c(OC)c5)nc34)CC2)cc1 [Example 21, 2-amino-4-[N-(4-pentoxybenzoyl)-piperazin-1-yl]-6-(3,4-dimethoxy-phenyl)pteridine]	6700 nM	6000 nM	
COc1ccc(-c2cnc3nc(N)nc(N4CCN(C(=O)Cc5cccs5)CC4)c3n2)cc1OC [Example 36, 2-amino-4-[(N-2-thiophenacetyl)-piperazin-1-yl]-6-(3,4-dimethoxy-phenyl)pteridine]	800 nM	800 nM	300 nM
COc1ccc(-c2cnc3nc(N)nc(N4CCN(C(=O)C=Cc5ccccc5)CC4)c3n2)cc1OC [Example 37, 2-amino-4-[(N-cinnamoyl)-piperazin-1-yl]-6-(3,4-dimethoxyphenyl)pteridine]	3300 nM	< 1 nM	100 nM
COc1ccc(-c2cnc3nc(N)nc(N4CCN(C(=O)c5cccc6ccccc56)CC4)c3n2)cc1OC [Example 46]	800 nM		200 nM
COc1ccc(-c2cnc3nc(N)nc(N4CCN(C(=S)N(C)C)CC4)c3n2)cc1OC [Example 49, 2-amino-4-[(N-dimethylthiocarbamoyl)-piperazin-1-yl]-6-(3,4-dimethoxy-phenyl)pteridine]	2200 nM	400 nM	70 nM
COc1ccc(-c2cnc3nc(N)nc(N4CCN(C(=O)Oc5ccccc5)CC4)c3n2)cc1OC [Example 50, 2-amino-4-[(N-phenoxycarbonyl)-piperazin-1-yl]-6-(3,4-dimethoxy-phenyl)pteridine]	5500 nM	65 nM	20 nM
CC(=O)N1CCN(c2nc(N)nc3ncc(-c4ccc(C)cc4)nc23)CC1 [Example 56, 2-amino-4-(N-acetylpiperazin-1-yl)-6-(4-tolyl)pteridine]	8700 nM	2800 nM	3700 nM

Compound	IC50 [1]	IC50 [2]	IC50 [3]
CC(=O)N1CCN(c2nc(N)nc3ncc(-c4ccc(F)cc4)nc23)CC1 [Example 57, 2-amino-4-(N-acetylpiperazin-1-yl)-6-(4-fluoro-phenyl)pteridine]	9500 nM	1900 nM	
COc1ccc(-c2cnc3nc(N)nc(N4CCN(c5ccccc5)CC4)c3n2)cc1OC [Example 64, 2-amino-4-(N-phenylpiperazin-1-yl)-6-(3,4-dimethoxyphenyl)pteridine]	4400 nM	400 nM	50 nM
COc1ccc(-c2cnc3nc(N)nc(N4CCN(Cc5ccccc5)CC4)c3n2)cc1OC [Example 65, 2-amino-4-(N-benzylpiperazin-1-yl)-6-(3,4-dimethoxyphenyl)pteridine]	3500 nM		95 nM
COc1ccc(OC(=O)N2CCN(c3nc(N)nc4ncc(-c5ccc(OC)c(OC)c5)nc34)CC2)cc1 [Example 91, 2-amino-4-[(N-4-methoxy-phenoxy-carbonyl)-piperazin-1-yl]-6-(3,4-dimethoxy-phenyl)pteridine]	4200 nM	52 nM	60 nM
COc1ccc(-c2cnc3nc(N)nc(N4CCN(C(=O)Oc5ccc(F)cc5)CC4)c3n2)cc1OC [Example 92, 2-amino-4-[(N-4-fluoro-phenoxy-carbonyl)-piperazin-1-yl]-6-(3,4-dimethoxyphenyl)pteridine]	8600 nM	50 nM	60 nM
COc1ccc(-c2cnc3nc(N)nc(N4CCN(C(=O)Oc5ccccc5OC)CC4)c3n2)cc1OC [Example 93]	4500 nM	70 nM	50 nM
COc1ccc(-c2cnc3nc(N)nc(N4CCN(C(=O)OCC(C)C)CC4)c3n2)cc1OC [Example 95, 2-amino-4-[N-isobutoxy-carbonyl-piperazin-1-yl]-6-(3,4-dimethoxyphenyl)pteridine]	1000 nM	120 nM	100 nM
COc1ccc(-c2cnc3nc(N)nc(N4CCN(C(=O)Oc5ccc6ccccc6c5)CC4)c3n2)cc1OC [Example 98]	6200 nM	120 nM	80 nM
COc1ccc(-c2cnc3nc(N)nc(N4CCN(C(=O)Nc5ccc(F)cc5)CC4)c3n2)cc1OC [Example 100]	7400 nM	7.4 nM	510 nM
COc1ccc(-c2cnc3nc(N)nc(N4CCN(C(=O)Nc5ccc(C)cc5)CC4)c3n2)cc1OC [Example 101, 2-amino-4-(N-4-methylphenyl-carbamoyl-piperazin-1-yl)-6-(3,4-dimethoxyphenyl)pteridine]	5600 nM	0.8 nM	430 nM
COc1ccc(-c2cnc3nc(N)nc(N4CCN(C(=O)Nc5ccsc5)CC4)c3n2)cc1OC [Example 107, 2-amino-4-(N-3-thienylcarbamoyl-piperazin-1-yl)-6-(3,4-dimethoxyphenyl)pteridines]	800 nM	3 nM	500 nM
COc1ccc(-c2cnc3nc(N)nc(N4CCN(C(=O)NCCc5cccs5)CC4)c3n2)cc1OC [Example 108, 2-amino-4-[N-2-(2-thienyl)ethylcarbamoyl-piperazin-1-yl]-6-(3,4-dimethoxyphenyl)pteridine]	1000 nM	34 nM	400 nM
COc1ccc(-c2cnc3nc(N)nc(N4CCN(Cc5ccc(Cl)cc5)CC4)c3n2)cc1OC [Example 139, 2-amino-4-((4-chlorobenzyl)piperazin-1-yl)-6-(3,4-dimethoxyphenyl)pteridine]	1200 nM		400 nM
COc1ccc(-c2cnc3nc(N)nc(N4CCN(c5cccc(C(F)(F)F)c5)CC4)c3n2)cc1OC [Example 173, 2-amino-6-(3,4-dimethoxyphenyl)-4-((3-trifluoromethylphenyl)-piperazin-1-yl)pteridine]	4600 nM	700 nM	
COc1ccc(-c2cnc3nc(N)nc(N4CCN(c5ccc(C(F)(F)F)cc5)CC4)c3n2)cc1OC [Example 180, 2-amino-6-(3,4-dimethoxyphenyl)-4-((4-trifluoromethylphenyl)-piperazin-1-yl)pteridine]	4400 nM		1400 nM
COc1ccc(-c2cnc3nc(N)nc(N4CCN(C(=O)Nc5cccc(C(F)(F)F)c5)CC4)c3n2)cc1OC [Example 195, 2-amino-4-(N-3-trifluoromethyl-phenyl-carbamoyl-piperazin-1-yl)-6-(3,4-dimethoxyphenyl)pteridine]		36 nM	700 nM
COc1cc(-c2cnc3nc(N)nc(N4CCN(c5ccc(C)cc5)CC4)c3n2)ccc1O [Example 206]		500 nM	700 nM
